This is an account of results in publication PMC6769468, “Endogenous Neuropeptide Nocistatin Is a Direct Agonist of Acid-Sensing Ion Channels (ASIC1, ASIC2 and ASIC3)” (Biomolecules, 2019).

Ends that are not written are not given here.

This assay addresses T1, rat ASIC1a (Rattus norvegicus, UniProt P55926).
T1 construct: expressed in transfected cells; host or cells: Xenopus laevis oocytes (injected)
T1 sequence (P55926 1-526): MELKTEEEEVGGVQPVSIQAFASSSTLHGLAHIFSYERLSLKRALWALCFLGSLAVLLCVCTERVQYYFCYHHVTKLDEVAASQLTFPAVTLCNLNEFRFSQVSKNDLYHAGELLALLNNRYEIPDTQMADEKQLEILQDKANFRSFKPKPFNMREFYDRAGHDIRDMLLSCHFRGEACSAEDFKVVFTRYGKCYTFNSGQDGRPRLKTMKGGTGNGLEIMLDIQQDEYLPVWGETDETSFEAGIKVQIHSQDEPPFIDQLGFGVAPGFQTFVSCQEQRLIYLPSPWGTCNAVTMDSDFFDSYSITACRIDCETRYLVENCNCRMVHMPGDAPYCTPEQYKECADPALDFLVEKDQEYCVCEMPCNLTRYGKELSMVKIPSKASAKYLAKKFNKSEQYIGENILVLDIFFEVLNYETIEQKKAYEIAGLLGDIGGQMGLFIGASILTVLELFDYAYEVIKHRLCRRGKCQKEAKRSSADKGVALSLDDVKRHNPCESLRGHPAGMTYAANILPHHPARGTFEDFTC
As to the kind of experiment: ASIC1a steady-state desensitization (SSD) by rNS preconditioning. Format: cell-based. To be noted: preconditioning with 0.04 to 0.1 mM rNS, then 1 mM rNS stimulus; n = 4. Here is the method: Oocytes expressed rASIC1a, rASIC1b, rASIC2a, and rASIC3 homomeric channels were prepared as described. Injected oocytes were kept for two–three days at 19 °C and then for up to seven days at 15 °C in ND-96 medium supplemented with gentamycin (50 μg·mL^−1) and containing (in mM): 96 NaCl, 2 KCl, 1.8 CaCl2, 1 MgCl2, and 10 HEPES titrated to pH 7.4 with NaOH. Electrophysiological recordings were performed using the GeneClamp500 amplifier (Axon Instruments, Inverurie, UK) at a holding potential of -50 mV. The data were filtered at 20 Hz and digitized at 100 Hz using the L780 AD converter (L-Card, Moscow, Russia). Microelectrodes were filled with 3 M KCl. […]
Figure 2 Effects of nocistatin on rat ASIC1a channels. […] Calculated parameters of EC50 for non-discriminated sites, or EC501 for “cooperative” sites and EC502 for single site, are shown as a result of experimental data mathematical processing. The peak current amplitude is normalized to the maximum amplitude (Imax) calculated for each oocyte by individual fitting. […] Two independent dose-response curves were measured for the 1st (blue line) and the 2nd (green line) peak components of the current. Calculated parameters of IC50 are shown as a result of experimental data mathematical processing by F3(x) logistic equation (see Materials and Methods for detailed description). […]

On to “MPRVRSVVQARDAEPEADAEPVADEADEVEQKQLQ [rNS]”, for which the “Steady-state desensitization (SSD)” value was “does not -induce SSD”.
